The test system of assay [1] is 60 human cancer cell lines. The assay is described as follows: NCI60 one-dose screen, overall mean. The assay is classed as cell-based. As to conditions: mean over all 60 cell lines, read-out: Mean growth percent. As for the experimental part: (§1) The screening results are presented in the Supplementary Materials (Table S1), where the cytotoxicity was determined for the 10 µM concentration. […] The negative numbers indicate significant decreases in the cell number. […] Compared to the reference chrysin (2), all phosphonium hybrids (3a–h) had significant antiproliferative activities. […] At the same time, it should be noted that more than 60% average reduction was also obtained in the case of the other examined conjugates (3a–h).
(§2) A detailed description of the NCI screening procedures, including the one-dose and five-dose tests, can be found in the Supplementary Materials, on the website of NCI [39], and in our previous work.
(§3) A detailed description of the NCI screening procedures can also be found on the website of NCI [39], and in our […]
(§4) All candidates were examined at first at a single high dose (10 μM) in the full NCI60 cell panel. The value reported for the one-dose test is growth relative to the no-drug control and relative to the time zero number of cells. This made possible the disclosure of both growth inhibition (numbers between 0 and 100) and lethality (numbers less than 0). For example, a value of 100 means no growth inhibition. A value of 20 would mean 80% growth inhibition. A value of 0 means no net growth over the course of the analysis. A value of −20 would mean 20% lethality. A value of −100 means all cells are dead. […]
(§5) concentration levels. The human tumor cell lines of the cancer screening panel were grown in RPMI 1640 medium containing 5% fetal bovine serum and 2 mM l-glutamine. Characteristically, cells were injected in 96-well microtiter plates in 0.1 mL at plating densities ranging from 5000 to 40,000 cells/well, depending on the doubling time of individual cell lines. After cell inoculation, the microtiter plates were incubated at 37 °C, 5% carbon dioxide, 95% air, and 100% relative humidity for 24 hours before the addition of tested compounds. After 24 hours, 2 plates of each cell line were fixed in situ with Cl3COOH (TCA), to represent a measurement of the cell population for each cell line at the time of drug addition (tz). Tested compounds were solubilized in DMSO at 400-fold the desired final maximum test concentration and stored frozen before application. In the course of the drug addition, an aliquot of frozen concentrate was thawed and diluted to twice the desired final maximum test concentration with a complete medium containing 50 μg mL−1 gentamicin. Additional four, 10-fold or ½ log serial dilutions were produced to furnish a total of five drug concentrations plus control. Aliquots of 0.1 mL of these different drug dilutions were added to the appropriate microtiter wells already containing 0.1 mL of medium, resulting in the required final drug concentrations.
(§6) Following drug addition, the plates were incubated at 37 °C, 5% carbon dioxide, 95% air, and 100% relative humidity for an additional 48 hours. For adherent cells, the test was finished by the addition of cold Cl3COOH. Cells were fixed in situ by the addition of 50 μL of cold 50% (w/v) Cl3COOH, and incubated at 4 °C for 1 hour. The supernatant was discarded, and the plates were washed with H2O (5×) and dried in air. Sulforhodamine B (SRB) solution (0.1 mL) at 0.4% (w/v) in 1% CH3COOH was added to each well, and plates were incubated at RT for 10 min. After staining, the unbound dye was removed by washing five times with 1% CH3COOH, and the plates were dried in the air. The bound stain is afterward solubilized with a 10 mM trizma base, and the absorbance is read on an automated plate reader at λ = 515 nm. Utilizing the seven absorbance measurements [time zero (tz), control growth (c), and test growth in the presence of the drug at the five concentration levels (ti)], the percentage growth was determined at each of the drug concentration levels. Growth inhibition (%) was calculated as:
(§7) [(ti − tz)/(c − tz)] × 100, for concentrations where ti ≥ tz (1) […]

The subject of the next assay is UACC-62. The assay is described as follows: NCI60 one-dose screen. The assay is classed as cell-based, human. The following applies: UACC-62, 10 μM. How it is done: as §1, §2, §3, §4, §5, §6, §7
A further assay deals with PC-3. The assay is described as follows: NCI60 one-dose screen. It counts as cell-based, human. The following applies: PC-3, 10 μM. As for the experimental part: as §1, §2, §3, §4, §5, §6, §7
The next assay concerns T-47D. Put plainly: NCI60 one-dose screen. The assay is classed as cell-based, human. The following applies: 10 μM. As for the experimental part: as §1, §2, §3, §4, §5, §6, §7
The test system of another assay is SR. Put plainly: NCI60 one-dose screen. The assay is classed as cell-based, human. The following applies: 10 μM. How it is done:
as §1, §2, §3, §4, §5, §6, §7

The test system of the next assay is HOP-92. The assay is described as follows: NCI60 one-dose screen. The assay is classed as cell-based, human. The following applies: HOP-92, 10 μM. As for the experimental part:
as §1, §2, §3, §4, §5, §6, §7

The structures appear in SMILES notation.

`O=c1cc(-c2ccccc2)oc2cc(OCCCC[P+](c3ccccc3)(c3ccccc3)c3ccccc3)cc(O)c12` [3a]: the activity at 10 µM in assay [1] was -74.3%. Moreover, the Growth percent in the assay on UACC-62 was −59.51%; with PC-3 it was −87.34%; with T-47D it was −62.52%; in the assay with SR, −39.83%.

On to `Cc1ccc([P+](CCCCOc2cc(O)c3c(=O)cc(-c4ccccc4)oc3c2)(c2ccc(C)cc2)c2ccc(C)cc2)cc1` [3b], for which the activity at 10 µM in assay [1] was -69.9%. Besides, the Growth percent is on record as −88.32% with UACC-62, −52.52% with T-47D and −36.14% with SR.

For `COc1ccc([P+](CCCCOc2cc(O)c3c(=O)cc(-c4ccccc4)oc3c2)(c2ccc(OC)cc2)c2ccc(OC)cc2)cc1` [3c], the activity at 10 µM in assay [1] was -68.3%. Moreover, the Growth percent in the assay on HOP-92 was −79.86%; in the assay on PC-3, −82.70%.

For `O=c1cc(-c2ccccc2)oc2cc(OCCCC[P+](c3ccc(F)cc3)(c3ccc(F)cc3)c3ccc(F)cc3)cc(O)c12` [3d], in assay [1], the activity at 10 µM is -69.5%. Further, the Growth percent in the assay on UACC-62 is recorded as −96.92%; in the assay with T-47D, −53.27%; in the assay with SR, −36.14%.

Regarding `O=c1cc(-c2ccccc2)oc2cc(OCCCC[P+](C3CCCCC3)(C3CCCCC3)C3CCCCC3)cc(O)c12` [3e], the activity at 10 µM in assay [1] was -76%. Also, the Growth percent is given as −75.86% with HOP-92 and −70.81% in the assay with PC-3.

As to `COc1c(C)cc([P+](CCCCOc2cc(O)c3c(=O)cc(-c4ccccc4)oc3c2)(c2cc(C)c(OC)c(C)c2)c2cc(C)c(OC)c(C)c2)cc1C` [3f], the activity at 10 µM in assay [1] is -63.4%. Also, the Growth percent in the assay with UACC-62 is recorded as −80.44%; in the assay on HOP-92 it was −68.75%; with PC-3 it was −76.48%; with T-47D, −52.77%; in the assay on SR, 23.00%.

Turning to `Cc1ccccc1[P+](CCCCOc1cc(O)c2c(=O)cc(-c3ccccc3)oc2c1)(c1ccccc1C)c1ccccc1C` [3g], the activity at 10 µM in assay [1] was -97.7%. The Growth percent was −97.94% in the assay on UACC-62, −98.85% in the assay on HOP-92 and −97.92% with PC-3.

On to `O=c1cc(-c2ccccc2)oc2cc(OCCCC[P+](c3ccccc3)(c3ccccc3)c3ccccn3)cc(O)c12` [3h], for which the activity at 10 µM in assay [1] is -72.3%. For the same molecule, the Growth percent in the assay with UACC-62 was −73.54%; in the assay on HOP-92 it was −69.74%; with PC-3 it was −35.64%; in the assay on T-47D, −49.47%; in the assay on SR, 0.35%.

Regarding `O=c1cc(-c2ccccc2)oc2cc(O)cc(O)c12` [compound 2, 5,7-dihydroxyflavone, reference compound], in assay [1], the activity at 10 µM was 96.1%. Besides, the Growth percent with UACC-62 is 82.24%; with HOP-92 it was 77.93%; in the assay with PC-3, 93.17%; in the assay on T-47D, 101.44%; in the assay with SR, 77.87%.

The values above are taken from PMC12652692, “Synthesis and In Vitro Anticancer Evaluation of Novel Phosphonium Derivatives of Chrysin” (International Journal of Molecular Sciences, 2025).
